The source of these data is patent publication US20140350081A1, “INSECT G-COUPLED RECEPTORS USEFUL AS TARGETS FOR INSECTICIDES AND COMPOUNDS AND REAGENTS IDENTIFIED USING THE SAME” (priority 2011, published 2014).

Molecules are shown by their SMILES. Structures can show the parent of a compound that is named as a salt.

For one test, the target named is AaDOP2 (Aedes aegypti, UniProt H6D5H2). Nature of the test: HTRF cAMP accumulation concentration response assay (Cisbio Dynamic 2). It counts as cell-based.
Chain of AaDOP2 (H6D5H2 entry or part of it): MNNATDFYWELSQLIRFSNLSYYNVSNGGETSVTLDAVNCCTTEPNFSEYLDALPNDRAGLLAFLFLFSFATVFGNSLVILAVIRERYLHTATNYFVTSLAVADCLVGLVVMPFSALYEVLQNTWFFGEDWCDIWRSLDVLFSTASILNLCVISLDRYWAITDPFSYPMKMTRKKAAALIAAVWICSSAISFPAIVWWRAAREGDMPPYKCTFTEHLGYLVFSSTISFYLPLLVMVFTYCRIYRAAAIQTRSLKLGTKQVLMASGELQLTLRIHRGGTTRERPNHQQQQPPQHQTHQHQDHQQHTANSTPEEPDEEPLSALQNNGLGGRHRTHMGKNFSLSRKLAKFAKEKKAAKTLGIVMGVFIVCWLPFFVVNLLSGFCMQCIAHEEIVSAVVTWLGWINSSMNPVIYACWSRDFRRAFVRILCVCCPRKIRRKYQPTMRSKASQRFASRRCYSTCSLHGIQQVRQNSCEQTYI
Details: not given
On the technique in general: TR-FRET usually uses a lanthanide donor and a delayed reading to cut background.
As to `CN(C)CCOc1ccc(/C(=C(/CCCl)c2ccccc2)c2ccccc2)cc1` [Toremifene citrate salt, (Z)-2-(4-(4-Chloro-1,2-diphenyl-1-butenyl)phenoxy)-N,N-dimethylethanamine], the IC50 (commonly the concentration that inhibits the measured activity by half) came out at 44900 nM. Still for that read-out and setting: the figure for `CN1CCCC(n2nc(Cc3ccc(Cl)cc3)c3ccccc3c2=O)CC1` (stereo not shown) [Azelastine HCl, 4-[(4-chlorophenyl)methyl]-2-(1-methylazepan-4-yl)phthalazin-1-one hydrochloride] is 47500 nM; for `CC(=O)c1ccc2c(c1)OCO2` [ST092311, 5-acetyl-2H-benzo[d]1,3-dioxolene] it is 5820 nM.

Still in this test, the particulars now being: AaDOP2 expressing cells in the presence of dopamine; No Inhibition = <10% inhibition at 3 μM test compound.
In the case of `O=C1CC2(CCCC2)CC(=O)N1CCCCN1CCN(c2ncccn2)CC1` [Buspirone], the “IC50 ± S.E.M. (nM), HTRF cAMP assay” value was “No Inhibition^a”.

The same test, now with this note: AaDOP2 expressing cells in the presence of dopamine; No Inhibition = <10% inhibition at 3 μM test compound; read-out: IC50 ± S.E.M. (nM), HTRF cAMP assay.
For the compound `Cc1nc2sccn2c(=O)c1CCN1CCC(=C(c2ccccc2)c2ccc(F)cc2)CC1` [Compound R59-022], the IC50 was found to be 53 ± 13 nM. On the same count and under the same terms, the figure for `CCOC(=O)N1CCC(=C2c3ccc(Cl)cc3CCc3cccnc32)CC1` [Loratidine] is 18000 nM.

Still in this test, the particulars now being: Avg IC50 (μM), in vitro Concentration Response Curve assay, n = 2, relative to control antagonist Amitriptyline.
`COc1ccccc1OCCNCC(O)COc1cccc2[nH]c3ccccc3c12` (stereo not shown) [Carvedilol, 1-(9H-Carbazol-4-yloxy)-3-[[2-(2-methoxyphenoxy)ethyl]amino]-2-propanol] displayed an IC50 of 8500 nM.

The same test, now with this note: in vitro Concentration Response Curve assay, n = 2, relative to control antagonist Amitriptyline; read-out: Avg IC50.
With `COc1ccc(Nc2cc(C)nc(Nc3ccc(NC(=O)CC(C)(C)C)cc3)n2)cc1` [Compound G869-0275, N-(4-((4-((4-methoxyphenyl)amino)-6-methylpyrimidin-2-yl)amino)phenyl)-3,3-dimethylbutanamide], the IC50 turned out to be 9020 nM.

On to `N=C1SC(=Cc2cc3c(cc2Br)OCO3)C(=O)N1c1ccc(OC(F)(F)F)cc1` [ST052085, 5-[(6-bromo(2H-benzo[d]1,3-dioxolen-5-yl))methylene]-2-imino-3-[4-(trifluoromethoxy)phenyl]-1,3-thiazolidin-4-one], for which the IC50 stood at 74200 nM. The same measure, in the same setting: the figure for `CCN1CCN(c2nc(Nc3cccc(F)c3)c3cnn(-c4ccccc4)c3n2)CC1` [Compound G932-0687, 6-(4-ethylpiperazin-1-yl)-N-(3-fluorophenyl)-1-phenyl-1H-pyrazolo[3,4-d]pyrimidin-4-amine] is 769 nM; for `Cc1cc(Nc2ccccc2)nc(Nc2ccc(NC(=O)C(C)(C)C)cc2)n1` [Compound G869-0100, N-(4-((4-methyl-6-(phenylamino)pyrimidin-2-yl)amino)phenyl)pivalamide] it is 2080 nM.

As to `CN1CCN(c2nc(Nc3ccc(Cl)cc3)c3cnn(-c4ccccc4)c3n2)CC1` [Compound G932-0379, N-(4-chlorophenyl)-6-(4-methylpiperazin-1-yl)-1-phenyl-1H-pyrazolo[3,4-d]pyrimidin-4-amine], the IC50 stood at 3980 nM. On to `COc1cc(OC)cc(C(=O)Nc2ccc(Nc3nc(C)cc(Nc4ccccc4)n3)cc2)c1` [Compound G869-0121, 3,5-dimethoxy-N-(4-((4-methyl-6-(phenylamino)pyrimidin-2-yl)amino)phenyl)benzamide], for which the IC50 is 2220 nM.

`CCOC(=O)C1=C(N)Oc2c(oc(CO)cc2=O)C1c1cc([N+](=O)[O-])ccc1Cl` (stereo not shown) [ST071653, ethyl 2-amino-4-(2-chloro-5-nitrophenyl)-6-(hydroxymethyl)-8-oxo-4H-pyrano[3,2-b]pyran-3-carboxylate]: the IC50 came to 1650 nM. Same read-out and setting: the figure for `CCCN1C[C@H](CSC)C[C@@H]2c3cccc4[nH]cc(c34)C[C@H]21` [Pergolide Mesylate, 8β-[(Methylthio)methyl]-6-propylergoline methanesulfonate salt] is 704 nM; for `CCC(CC)c1nc(Nc2ccc(C(=O)OC)cc2)c2ccccc2n1` [ST029812, methyl 4-{[2-(ethylpropyl)quinazolin-4-yl]amino}benzoate] it is 8930 nM; for `COc1ccc2[nH]cc(CCNC(=O)C(=O)c3c(-c4ccccc4)n(C)c4ccccc34)c2c1` [ST077642, N-[2-(5-methoxyindol-3-yl)ethyl]-2-(1-methyl-2-phenylindol-3-yl)-2-oxoacetamide] it is 17600 nM. Regarding `CCN(CC)CCNc1nc(Nc2ccc(Cl)cc2)c2cnn(-c3ccccc3)c2n1` [Compound G932-0372, N4-(4-chlorophenyl)-N6-(2-(diethylamino)ethyl)-1-phenyl-1H-pyrazolo[3,4-d]pyrimidine-4,6-diamine], the IC50 stood at 5130 nM. As for `CN1CCN(c2nc(Nc3ccc4c(c3)OCO4)c3cnn(-c4ccccc4)c3n2)CC1` [Compound G932-0818, N-(benzo[d][1,3]dioxol-5-yl)-6-(4-methylpiperazin-1-yl)-1-phenyl-1H-pyrazolo[3,4-d]pyrimidin-4-amine], the IC50 turned out to be 1650 nM. On the same count and under the same terms, the figure for `Cc1ccc(Nc2nc(N3CCN(C)CC3)nc3c2cnn3-c2ccccc2)cc1` [Compound G932-0029, 6-(4-methylpiperazin-1-yl)-1-phenyl-N-(p-tolyl)-1H-pyrazolo[3,4-d]pyrimidin-4-amine] is 4550 nM; for `Cc1cc(Nc2ccccc2)nc(Nc2ccc(NC(=O)C3CCCCC3)cc2)n1` [Compound G869-0105, N-(4-((4-methyl-6-(phenylamino)pyrimidin-2-yl)amino)phenyl)cyclohexanecarboxamide] it is 11600 nM. Still for that read-out and setting: with `CCCCC(=O)Nc1ccc(Nc2nc(C)cc(Nc3ccccc3)n2)cc1` [Compound G869-0099, N-(4-((4-methyl-6-(phenylamino)pyrimidin-2-yl)amino)phenyl)pentanamide] the figure was 5950 nM; with `COc1ccc(Nc2cc(C)nc(Nc3ccc(NC(C)=O)cc3)n2)cc1` [Compound G869-0268, N-(4-((4-((4-methoxyphenyl)amino)-6-methylpyrimidin-2-yl)amino)phenyl)acetamide], 13200 nM; with `COc1ccc(Nc2cc(C)nc(Nc3ccc(NC(=O)C(C)(C)C)cc3)n2)cc1` [Compound G869-0273, N-(4-((4-((4-methoxyphenyl)amino)-6-methylpyrimidin-2-yl)amino)phenyl)pivalamide], 5090 nM.

Take `Cc1cc(Nc2ccccc2)nc(Nc2ccc(NC(=O)c3ccccc3Cl)cc2)n1` [Compound G869-0127, 2-chloro-N-(4-((4-methyl-6-(phenylamino)pyrimidin-2-yl)amino)phenyl)benzamide]: the IC50 came out at 7510 nM. As for `O=[N+]([O-])C1=Cc2ccccc2OC1c1ccc2c(c1)OCO2` (stereo not shown) [ST038696, 5-(3-nitro-2H-chromen-2-yl)-2H-benzo[d]1,3-dioxolane], the IC50 was determined as 5510 nM. The same measure, in the same setting: the figure for `COc1ccc(Nc2nc(N3CCN(C)CC3)nc3c2cnn3-c2ccccc2)cc1` [Compound G932-0529, N-(4-methoxyphenyl)-6-(4-methylpiperazin-1-yl)-1-phenyl-1H-pyrazolo[3,4-d]pyrimidin-4-amine] is 6870 nM. On to `O=C(NCC1CCCCN1)c1cc(OCC(F)(F)F)ccc1OCC(F)(F)F` (stereo not shown) [Flecainide Acetate, N-(2-Piperidylmethyl)-2,5-bis-(2,2,2-trifluoroethoxy)benzamide acetate salt], for which the IC50 was 318 nM. On the same count and under the same terms, the figure for `Cc1ccc(N(CC2=NCCN2)c2cccc(O)c2)cc1` [Phentolamine HCl, 2-[N-(3-Hydroxyphenyl)-p-toluidinomethyl]-2-imidazolidine hydrochloride] is 9030 nM. On to `CCN1CCN(c2nc(Nc3ccc(F)cc3)c3cnn(-c4ccccc4)c3n2)CC1` [Compound G932-0345, 6-(4-ethylpiperazin-1-yl)-N-(4-fluorophenyl)-1-phenyl-1H-pyrazolo[3,4-d]pyrimidin-4-amin], for which the IC50 turned out to be 4540 nM. On the same count and under the same terms, with `CC(C)(O)C#Cc1ccc2c3c(cccc13)C(=O)OC2=O` [ST010134, 6-(3-hydroxy-3-methyl-but-1-ynyl)-benzo(de)isochromene-1,3-dione] the figure was 952 nM; with `CC1CCC(C(C)C)C(OC(=O)C(=O)c2ccccc2)C1` (stereo not shown) [ST070482, 5-methyl-2-(methylethyl)cyclohexyl 2-oxo-2-phenylacetate], 32400 nM; with `c1ccc(CCNc2nc(N3CCNCC3)nc3ccccc23)cc1` [ST095663, (phenylethyl)(2-piperazinylquinazolin-4-yl)amine], 4840 nM. As to `Cc1ccccc1Nc1nc(N2CCN(C)CC2)nc2c1cnn2-c1ccccc1` [Compound G932-0129, 6-(4-methylpiperazin-1-yl)-1-phenyl-N-(o-tolyl)-1H-pyrazolo[3,4-d]pyrimidin-4-amine], the IC50 amounted to 3490 nM.

Take `Cc1cc(Nc2ccccc2)nc(Nc2ccc(NC(=O)C(C)C)cc2)n1` [Compound G869-0098, N-(4-((4-methyl-6-(phenylamino)pyrimidin-2-yl)amino)phenyl)isobutyramide]: the IC50 was found to be 3100 nM. The same measure, in the same setting: the figure for `Cc1ccccc1Nc1nc(Nc2ccccc2C)c2ccccc2n1` [ST027415, (2-methylphenyl){2-[(2-methylphenyl)amino]quinazolin-4-yl}amine] is 8860 nM; for `Cc1cc(N2CCCC2)nc(Nc2ccc(NC(=O)c3ccccc3Br)cc2)n1` [Compound G869-0472, 2-bromo-N-(4-((4-methyl-6-(pyrrolidin-1-yl)pyrimidin-2-yl)amino)phenyl)benzamide] it is 19400 nM. As to `CCC(=O)Nc1ccc(Nc2nc(C)cc(Nc3ccccc3)n2)cc1` [Compound G869-0096, N-(4-((4-methyl-6-(phenylamino)pyrimidin-2-yl)amino)phenyl)propionamide], the IC50 was determined as 4740 nM. On the same count and under the same terms, with `Cc1cc(Nc2ccccc2)nc(Nc2ccc(NC(=O)CC(C)C)cc2)n1` [Compound G869-0101, 3-methyl-N-(4-((4-methyl-6-(phenylamino)pyrimidin-2-yl)amino)phenyl)butanamide] the figure was 5500 nM; with `OCCN1CCN(c2nc(Nc3cccc(F)c3)c3cnn(-c4ccccc4)c3n2)CC1` [Compound G932-0674, 2-(4-(4-((3-fluorophenyl)amino)-1-phenyl-1H-pyrazolo[3,4-d]pyrimidin-6-yl)piperazin-1-yl)ethanol], 1480 nM.
